Experimental data reported in patent publication US8735387B2, “Oxazolopyrimidines as Edg-1 receptor agonists” (Sanofi, priority 2008, dated 2014).

target: T1, human Edg-1 receptor (Homo sapiens, UniProt P21453); assay: GTP-γ-S assay using human Edg-1 receptors (scintillation proximity assay, membrane preparation from CHO Flp-In cell line); type: biochemical; details: example compound at 10 μM; relative to 10 μM S1P; GTP-γ-S SPA, human Edg-1 membranes
T1 construct: expressed in transfected cells; membrane preparation
T1 sequence (P21453 whole entry): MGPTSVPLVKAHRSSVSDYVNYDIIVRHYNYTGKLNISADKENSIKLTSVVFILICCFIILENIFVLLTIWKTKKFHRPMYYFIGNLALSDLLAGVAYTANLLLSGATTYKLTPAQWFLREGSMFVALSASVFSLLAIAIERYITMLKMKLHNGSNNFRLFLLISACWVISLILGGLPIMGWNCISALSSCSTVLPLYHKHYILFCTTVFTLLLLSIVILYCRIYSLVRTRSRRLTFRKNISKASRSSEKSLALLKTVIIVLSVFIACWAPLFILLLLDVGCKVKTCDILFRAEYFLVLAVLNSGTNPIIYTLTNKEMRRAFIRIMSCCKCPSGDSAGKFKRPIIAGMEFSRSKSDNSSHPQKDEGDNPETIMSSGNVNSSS
Summary of the method: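 Membranes came from Flp-In CHO cells constitutively expressing human Edg-1 carrying an N-terminal FLAG tag. Compound-induced receptor activation was read as GTP-γ-S binding in a scintillation proximity format.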

Compound	% Activation (Edg-1 receptor activation in percent of the activation by 10 μM S1P) [%]
CCOc1nc(Cc2ccc(Cl)cc2)nc2oc(-c3cccnc3)nc12 [Example 128]	110
CCCOc1nc(Cc2ccc(Cl)cc2)nc2oc(-c3cccc(OC)c3)nc12 [Example 129]	108
CCCOc1nc(Cc2ccc(Cl)cc2)nc2oc(-c3cccc(Cl)c3)nc12 [Example 130]	78
CCCOc1nc(Cc2ccc(Cl)cc2)nc2oc(-c3cc(F)ccc3F)nc12 [Example 131]	116
CCCOc1nc(Cc2ccc(Cl)cc2)nc2oc(-c3ccc(F)c(F)c3)nc12 [Example 132]	71
CCCOc1nc(Cn2c(=O)n(C)c3ccccc32)nc2oc(-c3cccc(F)c3)nc12 [Example 133]	127
CCCOc1nc(CN2CCC(=O)C(C(=O)OC)C2)nc2oc(-c3cccc(F)c3)nc12 (centres unmarked) [Example 134]	78
CCCOc1nc(Cc2ccc(Cl)cc2)nc2oc(-c3cc(N)ccc3F)nc12 [Example 135]	117
CCCOc1nc(Cc2ccc(C)cc2)nc2oc(-c3cccc(F)c3)nc12 [Example 136]	73
CCCOc1nc(Cc2ccc(Cl)cc2)nc2oc(-c3cccc(N(C)C)c3)nc12 [Example 137]	55
CCCOc1nc(Cc2ccc(Cl)cc2)nc2oc(-c3cc(C(F)(F)F)cc(C(F)(F)F)c3)nc12 [Example 138]	52
Clc1ccc(Cc2nc(OCC3CC3)c3nc(-c4ccc(N5CCOCC5)nc4)oc3n2)cc1 [Example 139]	87
CCCOc1nc(CN2CCCC2COC)nc2oc(-c3cccc(F)c3)nc12 (centres unmarked) [Example 140]	92
C=CCOc1nc(Cc2ccc(Cl)c(Cl)c2)nc2oc(-c3cccc(F)c3)nc12 [Example 141]	85
CCCOc1nc(CN2C(=O)CC(C)(C)CC2=O)nc2oc(-c3cccc(F)c3)nc12 [Example 142]	75
CCCOc1nc(CN2CCCC2Cc2ccccc2)nc2oc(-c3cccc(F)c3)nc12 (centres unmarked) [Example 143]	73
CCCOc1nc(CN2CCC(OC)CC2)nc2oc(-c3cccc(F)c3)nc12 [Example 145]	67
CCCOc1nc(CN2CC(=O)N(Cc3ccccc3)C2=O)nc2oc(-c3cccc(F)c3)nc12 [Example 146]	56
CCCOc1nc(CN2CCCCC2c2nccs2)nc2oc(-c3cccc(F)c3)nc12 (centres unmarked) [Example 147]	55
CCCOc1nc(Cc2ccc(Cl)cc2)nc2oc(-c3ccc(N4CCOCC4)nc3)nc12 [Example 148]	41

Compound	% Activation (Edg-1 receptor activation in percent of the activation by 10 μM S1P) [%]
CCCOc1nc(Cc2ccc(Cl)cc2)nc2oc(-c3cc(C)cc(C)c3)nc12 [Example 149]	102
CCCOc1nc(Cc2ccc(Cl)cc2)nc2oc(-c3ccncc3F)nc12 [Example 150]	143
CCCOc1nc(Cc2ccc(Cl)cc2)nc2oc(-c3ccc(OC)nc3)nc12 [Example 151]	26
CCCOc1nc(Cc2ccc(Cl)cc2)nc2oc(-c3ccc(O)c(F)c3)nc12 [Example 152]	100
CCCOc1nc(Cc2ccc(Cl)cc2)nc2oc(-c3cncc(C)c3)nc12 [Example 153]	84
CCCOc1nc(Cn2cnc(C)n2)nc2oc(-c3cccc(F)c3)nc12 [Example 154]	88
CCCOc1nc(Cn2ncnc2C)nc2oc(-c3cccc(F)c3)nc12 [Example 155]	87
CCCOc1nc(CC2CCOCC2)nc2oc(-c3cccc(C)c3)nc12 [Example 159]	73
CCCOc1nc(CC2CCOCC2)nc2oc(-c3cccc(F)c3)nc12 [Example 160]	69
Fc1cccc(-c2nc3c(OCC4CC4)nc(CC4CCOCC4)nc3o2)c1 [Example 161]	96
CCCOc1nc(CC2CCC2)nc2oc(-c3cccc(C)c3)nc12 [Example 162]	108
CCOc1nc(CC2CCC2)nc2oc(-c3cccc(C)c3)nc12 [Example 163]	118
CCOc1nc(CC2CCC2)nc2oc(-c3cc(F)ccc3Cl)nc12 [Example 164]	98
Cc1cccc(-c2nc3c(OCC4CC4)nc(CC4CCC4)nc3o2)c1 [Example 165]	97
CCCOc1nc(Cc2cc(OC)cc(OC)c2)nc2oc(-c3cccc(C)c3)nc12 [Example 166]	42
CCCOc1nc(Cc2ccc(Cl)cc2)nc2oc(-c3cc(C)ccc3F)nc12 [Example 167]	102
CCCOc1nc(Cc2ccc(Cl)cc2)nc2oc(-c3ccc(Cl)c(C)c3)nc12 [Example 169]	87
CCCOc1nc(Cc2ccc(Cl)cc2)nc2oc(-c3cccc(C)c3C)nc12 [Example 170]	89
CCCOc1nc(Cc2ccc(Cl)cc2)nc2oc(-c3cccc(C)c3F)nc12 [Example 171]	115
CCCOc1nc(Cc2ccc(Cl)cc2)nc2oc(-c3ccc(F)c(C)c3)nc12 [Example 172]	78

Compound	% Activation (Edg-1 receptor activation in percent of the activation by 10 μM S1P) [%]
CCCOc1nc(Cc2ccc(Cl)cc2)nc2oc(-c3cnc(N4CCN(C)CC4)nc3)nc12 [Example 173]	77
CCCOc1nc(Cc2ccc(Cl)cc2)nc2oc(-c3cncnc3)nc12 [Example 174]	75
CCCOc1nc(Cc2ccc(Cl)cc2)nc2oc(-c3ccc(C(C)=O)s3)nc12 [Example 175]	116
CCCOc1nc(Cc2ccc(Cl)cc2)nc2oc(-c3ccc(OC)c(C)c3)nc12 [Example 176]	94
CCCOc1nc(Cc2ccc(Cl)cc2)nc2oc(-c3cc(OC)ncc3Cl)nc12 [Example 177]	106
CCCOc1nc(Cc2ccc(Cl)cc2)nc2oc(-c3ccc(N(C)C)c(C)c3)nc12 [Example 178]	91
CCCOc1nc(CN2CCCC(O)C2)nc2oc(-c3cccc(F)c3)nc12 (centres unmarked) [Example 179]	87
CCCOc1nc(CN2C(C(=O)O)CCS2(=O)=O)nc2oc(-c3cccc(F)c3)nc12 (centres unmarked) [Example 180]	41
CCCOc1nc(CN2CCC(O)C2)nc2oc(-c3cccc(F)c3)nc12 (centres unmarked) [Example 181]	58
CCCOc1nc(CN2CCCCC2)nc2oc(-c3cccc(F)c3)nc12 [Example 182]	108
CCCOc1nc(CN2CCCC2)nc2oc(-c3cccc(F)c3)nc12 [Example 183]	85
CCCOc1nc(CN2CCOC[C@@H]2C)nc2oc(-c3cccc(F)c3)nc12 [Example 184]	88
CCCOc1nc(CN2CCOC[C@@H]2CO)nc2oc(-c3cccc(F)c3)nc12 [Example 185]	97
Cc1cccc(-c2nc3c(OC(C)C)nc(CN4CCOCC4)nc3o2)c1 [Example 186]	123
Cc1cccc(-c2nc3c(OC4COC4)nc(CN4CCOCC4)nc3o2)c1 [Example 187]	116
CCCOc1nc(Cc2ccccc2)nc2oc(-c3cc(C)c(OC)c(C)c3)nc12 [Example 188]	112
COc1cccc(-c2nc3c(OCC(C)C)nc(Cc4ccccc4)nc3o2)c1 [Example 189]	114
CCOc1nc(Cc2ccc(Cl)cc2)nc2oc(-c3cc(C)c(OC)c(C)c3)nc12 [Example 190]	66

same assay, conditions: example compound at 10 μM; relative to 10 μM S1P; GTP-γ-S SPA, human Edg-1 membranes; read-out: % Activation (Edg-1 receptor activation in percent of the activation by 10 μM S1P)

Compound	activation at 10 µM [%]
CCCOc1nc(Cc2ccc(Cl)cc2)nc2oc(-c3cc(C)c(OC)c(C)c3)nc12 [Example 168, 5-(4-chloro-benzyl)-2-(4-methoxy-3,5-dimethyl-phenyl)-7-propoxy-oxazolo[5,4-d]pyrimidine]	117
